Data set [1] in a line: mn = molality of the nth substance listed, in mol/kg. As to conditions: 101.3 kPa, Liquid; for viscosity: Capillary tube (Ostwald / Ubbelohde) method; for mass density: Pycnometric method.
The conditions of data set [2]: 101.3 kPa, Liquid, Capillary tube (Ostwald / Ubbelohde) method.

Numbers after ± are expanded uncertainties.

The results in this text go back to the NIST ThermoML archive (doi:10.1016/j.jct.2015.06.025).

`O=C[C@H](O)[C@@H](O)[C@H](O)[C@H](O)CO` [D-glucose] + O: the viscosity in data set [1] (288.15 K, m1 = 0.06) turned out to be 1.174 ± 0.025 mPa·s; in data set [1] (298.15 K, m1 = 0.06) it was 0.9111 ± 0.019 mPa·s; in data set [1] (308.15 K, m1 = 0.06) it was 0.7299 ± 0.015 mPa·s. Moreover, the mass density in data set [1] (288.15 K, m1 = 0.06) was 1003.25 ± 0.45 kg/m3; in data set [1] (298.15 K, m1 = 0.06), 1001.17 ± 0.45 kg/m3; in data set [1] (308.15 K, m1 = 0.06) it was 998.15 ± 0.48 kg/m3.
On to `[Cl-].[Na+]` [sodium chloride] + O, for which the viscosity in data set [1] (288.15 K, m1 = 0.06) amounted to 1.146 ± 0.024 mPa·s; in data set [1] (298.15 K, m1 = 0.06) it was 0.896 ± 0.019 mPa·s; in data set [1] (308.15 K, m1 = 0.06) it was 0.7233 ± 0.015 mPa·s. For the same molecule, the mass density in data set [1] (288.15 K, m1 = 0.06) is reported as 1001.64 ± 0.45 kg/m3; in data set [1] (298.15 K, m1 = 0.06) it was 999.52 ± 0.45 kg/m3.
As for `O` [water], the viscosity in data set [2] (288.15 K) came out at 1.138 ± 0.024 mPa·s; in data set [2] (298.15 K), 0.8903 ± 0.018 mPa·s; in data set [2] (308.15 K), 0.7195 ± 0.015 mPa·s.
`O` [water] + CCCC(CCC)C(=O)[O-].[Na+]: the viscosity in data set [1] (288.15 K, m2 = 0) is 1.138 ± 0.024 mPa·s; in data set [1] (298.15 K, m2 = 0), 0.8903 ± 0.018 mPa·s; in data set [1] (308.15 K, m2 = 0) it was 0.7195 ± 0.015 mPa·s.

The viscosity is the internal friction of a fluid under shear. By mass density is commonly meant mass per unit of volume.
